Data published in PubChem BioAssay (NCI).
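Cultured in 96-well plates, cells were exposed to test compound for 48 hours across five concentrations. Here, GI50 denotes the concentration required for 50% inhibition of growth. At the TGI there is no net growth.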

Assays:
Assay in all cases: DTP human tumour cell line panel, 48 h
786-0 renal = tested on: 786-0 renal
A498 renal = tested on: A498 renal
A549 NSCLC = tested on: A549 NSCLC
ACHN renal = tested on: ACHN renal
CAKI-1 renal = tested on: CAKI-1 renal
CCRF-CEM leukemia = tested on: CCRF-CEM leukemia
COLO 205 colon = tested on: COLO 205 colon
DU-145 prostate = tested on: DU-145 prostate
EKVX NSCLC = tested on: EKVX NSCLC
HCC-2998 colon = tested on: HCC-2998 colon
HCT-116 colon = tested on: HCT-116 colon
HCT-15 colon = tested on: HCT-15 colon
HL-60(TB) leukemia = tested on: HL-60(TB) leukemia
HOP-62 NSCLC = tested on: HOP-62 NSCLC
HOP-92 NSCLC = tested on: HOP-92 NSCLC
HS 578T breast = tested on: HS 578T breast
HT29 colon = tested on: HT29 colon
IGROV1 ovarian = tested on: IGROV1 ovarian
K-562 leukemia = tested on: K-562 leukemia
KM12 colon = tested on: KM12 colon
LOX IMVI melanoma = tested on: LOX IMVI melanoma
M14 melanoma = tested on: M14 melanoma
MALME-3M melanoma = tested on: MALME-3M melanoma
MCF7 breast = tested on: MCF7 breast
MDA-MB-231 breast = tested on: MDA-MB-231 breast
MDA-MB-435 = tested on: MDA-MB-435
MOLT-4 leukemia = tested on: MOLT-4 leukemia
NCI-H226 lung = tested on: NCI-H226 lung
NCI-H23 lung = tested on: NCI-H23 lung
NCI-H460 lung = tested on: NCI-H460 lung
NCI-H522 lung = tested on: NCI-H522 lung
NCI/ADR-RES ovarian = tested on: NCI/ADR-RES ovarian
OVCAR-3 ovarian = tested on: OVCAR-3 ovarian
OVCAR-4 ovarian = tested on: OVCAR-4 ovarian
OVCAR-5 ovarian = tested on: OVCAR-5 ovarian
OVCAR-8 ovarian = tested on: OVCAR-8 ovarian
PC-3 prostate = tested on: PC-3 prostate
RPMI-8226 leukemia = tested on: RPMI-8226 leukemia
RXF 393 renal = tested on: RXF 393 renal
SF-268 CNS = tested on: SF-268 CNS
SF-295 CNS = tested on: SF-295 CNS
SF-539 CNS = tested on: SF-539 CNS
SK-MEL-2 melanoma = tested on: SK-MEL-2 melanoma
SK-MEL-28 melanoma = tested on: SK-MEL-28 melanoma
SK-MEL-5 melanoma = tested on: SK-MEL-5 melanoma
SK-OV-3 ovarian = tested on: SK-OV-3 ovarian
SN12C renal = tested on: SN12C renal
SNB-19 CNS = tested on: SNB-19 CNS
SNB-75 CNS = tested on: SNB-75 CNS
SR leukemia = tested on: SR leukemia
SW-620 colon = tested on: SW-620 colon
T-47D breast = tested on: T-47D breast
TK-10 renal = tested on: TK-10 renal
U251 CNS = tested on: U251 CNS
UACC-257 melanoma = tested on: UACC-257 melanoma
UACC-62 melanoma = tested on: UACC-62 melanoma
UO-31 renal = tested on: UO-31 renal

## CC/C=C\CCC/C=C1/C(=O)C=C[C@@H]1C/C=C\CCCC(=O)O
786-0 renal
  GI50: 4.37 µM
  TGI: 15.1 µM
A498 renal
  GI50: 18.4 µM
  TGI: 33.9 µM
A549 NSCLC
  GI50: 12.8 µM
  TGI: 32.7 µM
ACHN renal
  GI50: 1.89 µM
  TGI: 3.61 µM
CAKI-1 renal
  GI50: 3.43 µM
  TGI: 11.9 µM
CCRF-CEM leukemia
  GI50: 2.84 µM
  TGI: 16.2 µM
COLO 205 colon
  GI50: 5.83 µM
  TGI: 18.4 µM
DU-145 prostate
  GI50: 11.3 µM
  TGI: 23.8 µM
EKVX NSCLC
  GI50: 4.02 µM
  TGI: 14 µM
HCC-2998 colon
  GI50: 1.8 µM
  TGI: 3.39 µM
HCT-116 colon
  GI50: 2.53 µM
  TGI: 5.79 µM
HCT-15 colon
  GI50: 1.93 µM
  TGI: 4.52 µM
HL-60(TB) leukemia
  GI50: 2.75 µM
  TGI: 7.41 µM
HOP-62 NSCLC
  GI50: 7.61 µM
  TGI: 22 µM
HOP-92 NSCLC
  GI50: 13.2 µM
  TGI: 27 µM
HS 578T breast
  GI50: 13.7 µM
  TGI: 59.3 µM
HT29 colon
  GI50: 2.5 µM
  TGI: 5.27 µM
IGROV1 ovarian
  GI50: 4.12 µM
  TGI: 15.9 µM
K-562 leukemia
  GI50: 2.5 µM
  TGI: 37.9 µM
KM12 colon
  GI50: 2.46 µM
  TGI: 6.62 µM
LOX IMVI melanoma
  GI50: 1.46 µM
  TGI: 3.22 µM
M14 melanoma
  GI50: 3.89 µM
  TGI: 17.3 µM
MALME-3M melanoma
  GI50: 8.66 µM
  TGI: 26.6 µM
MCF7 breast
  GI50: 3.07 µM
  TGI: 16.8 µM
MDA-MB-231 breast
  GI50: 5.55 µM
  TGI: 22.5 µM
MDA-MB-435
  GI50: 2.01 µM
  TGI: 4.99 µM
MOLT-4 leukemia
  GI50: 2.44 µM
  TGI: 8.93 µM
NCI-H226 lung
  GI50: 4.35 µM
  TGI: 30.1 µM
NCI-H23 lung
  GI50: 3.37 µM
  TGI: 13.7 µM
NCI-H460 lung
  GI50: 4.49 µM
  TGI: 25.3 µM
NCI-H522 lung
  GI50: 2.02 µM
  TGI: 4.78 µM
NCI/ADR-RES ovarian
  GI50: 2.96 µM
  TGI: 11.8 µM
OVCAR-3 ovarian
  GI50: 3.36 µM
  TGI: 10.9 µM
OVCAR-4 ovarian
  GI50: 6.93 µM
  TGI: 22.1 µM
OVCAR-5 ovarian
  GI50: 4.85 µM
  TGI: 15.3 µM
OVCAR-8 ovarian
  GI50: 2.96 µM
  TGI: 9.87 µM
PC-3 prostate
  GI50: 3.64 µM
  TGI: 9.82 µM
RPMI-8226 leukemia
  GI50: 3.28 µM
  TGI: 11 µM
RXF 393 renal
  GI50: 3.68 µM
  TGI: 10.3 µM
SF-268 CNS
  GI50: 5.03 µM
  TGI: 22.1 µM
SF-295 CNS
  GI50: 2.87 µM
  TGI: 8.13 µM
SF-539 CNS
  GI50: 3.52 µM
  TGI: 12.4 µM
SK-MEL-2 melanoma
  GI50: 4.82 µM
  TGI: 18.3 µM
SK-MEL-28 melanoma
  GI50: 3.13 µM
  TGI: 10.6 µM
SK-MEL-5 melanoma
  GI50: 1.72 µM
  TGI: 3.31 µM
SK-OV-3 ovarian
  GI50: 14.4 µM
  TGI: 31.3 µM
SN12C renal
  GI50: 3.05 µM
  TGI: 8.5 µM
SNB-19 CNS
  GI50: 5.45 µM
  TGI: 20 µM
SNB-75 CNS
  GI50: 18 µM
  TGI: 44.9 µM
SR leukemia
  GI50: 1.92 µM
  TGI: 8.57 µM
SW-620 colon
  GI50: 4.46 µM
  TGI: 18 µM
T-47D breast
  GI50: 10.1 µM
  TGI: 23.3 µM
TK-10 renal
  GI50: 5.04 µM
  TGI: 17.2 µM
U251 CNS
  GI50: 3.7 µM
  TGI: 13.6 µM
UACC-257 melanoma
  GI50: 10.5 µM
  TGI: 23.7 µM
UACC-62 melanoma
  GI50: 2.22 µM
  TGI: 4.93 µM
UO-31 renal
  GI50: 2.16 µM
  TGI: 5.58 µM
